Laboratory results reported in ChEMBL document CHEMBL1201862, “PubChem BioAssay data set” (2004).
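Five concentrations, 48 hours, 96-well plates. GI50: concentration for 50% inhibition of growth.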 The source made the active and inactive calls. Cut-off read from the data, not from the text of the source: active = GI50 up to about 1.1 µM and inactive = higher.

Assays:
Experiment in all cases: DTP human tumour cell line panel, 48 h
[1] = system: SF-295
[2] = system: MCF7
[3] = system: KM12
[4] = system: BT-549
[5] = system: T47D
[6] = system: MDA-N
[7] = system: DU-145
[8] = system: CCRF-CEM
[9] = system: MDA-MB-435
[10] = system: COLO 205
[11] = system: HL-60
[12] = system: PC-3
[13] = system: TK-10
[14] = system: SN12C
[15] = system: Hs-578T
[16] = system: MDA-MB-231
[17] = system: LOX IMVI
[18] = system: NCI-H460
[19] = system: NCI/ADR-RES

Measured: GI50

FC(F)(F)c1ccc(/N=N/N2CCCC2)cc1
inactive: [1] > 100 µM | [2] > 100 µM | [3] 5.31 µM | [4] > 100 µM | [5] 23.6 µM | [6] > 100 µM | [7] > 100 µM | [8] > 100 µM | [9] > 100 µM | [10] > 100 µM | [11] > 100 µM | [12] > 100 µM | [13] > 100 µM | [14] > 100 µM | [15] > 100 µM | [16] > 100 µM | [17] > 100 µM | [18] 63 µM

COc1cccc(/C=C2/S/C(=N/Nc3nc(C)c(C(C)=O)s3)NC2=O)c1O
inactive: [1] 52.8 µM | [2] 32.6 µM | [3] 36.2 µM | [4] 28.9 µM | [5] 23.3 µM | [6] 31.7 µM | [7] 34.4 µM | [8] 18.2 µM | [9] 30.5 µM | [19] 33.8 µM | [10] 27.5 µM | [11] 12.4 µM | [12] 25.9 µM | [13] 27.6 µM | [14] 31.7 µM | [15] 57.8 µM | [16] 18.9 µM | [17] 31.7 µM | [18] 29.6 µM

CC1OC1C(=O)P(=O)(O)O (centres undefined)
inactive: [1] > 100 µM | [2] > 100 µM | [3] > 100 µM | [4] > 100 µM | [5] > 100 µM | [6] > 100 µM | [7] > 100 µM | [8] > 100 µM | [9] > 100 µM | [19] > 100 µM | [10] > 100 µM | [11] > 100 µM | [12] > 100 µM | [13] > 100 µM | [14] > 100 µM | [15] > 100 µM | [16] > 100 µM | [17] > 100 µM | [18] > 100 µM

O=C1c2ccccc2C(=O)c2[nH]c(=O)c(/C=N/Nc3ccc([N+](=O)[O-])cc3)nc21
inactive: [1] 3.32 µM | [2] 9.38 µM | [3] 5.73 µM | [4] 5.08 µM | [5] > 47.2 µM | [6] 1.75 µM | [7] 1.81 µM | [8] > 35.5 µM | [9] 1.8 µM | [19] 19.1 µM | [10] 7.98 µM | [11] 8.79 µM | [12] 17.1 µM | [13] 16.1 µM | [14] 11.9 µM | [15] 3.22 µM | [16] 11.3 µM | [17] 3.56 µM | [18] 2.06 µM

CC1(C)[C@H](C(=O)O)N2C(=O)[C@@H](NS(=O)(=O)c3ccc([N+](=O)[O-])cc3)[C@H]2S1(=O)=O
inactive: [1] > 100 µM | [2] > 100 µM | [3] > 100 µM | [4] > 100 µM | [5] > 100 µM | [6] > 100 µM | [7] > 100 µM | [8] > 100 µM | [9] > 100 µM | [19] > 100 µM | [10] > 100 µM | [11] > 100 µM | [12] > 100 µM | [13] > 100 µM | [14] > 100 µM | [15] > 100 µM | [16] > 100 µM | [17] > 100 µM | [18] > 100 µM

O=C1c2ccccc2C2(c3ccc(Cl)cc3)N[C@H]3CCCC[C@@H]3N12 (some centres undefined)
inactive: [1] > 100 µM | [3] 85.5 µM | [4] > 100 µM | [5] > 100 µM | [6] > 100 µM | [7] > 100 µM | [8] 53.2 µM | [9] > 100 µM | [19] 63 µM | [10] > 100 µM | [11] 47.9 µM | [12] > 100 µM | [13] > 100 µM | [14] > 100 µM | [15] 59.2 µM | [16] > 100 µM | [17] > 100 µM

FC(F)(F)c1ccc2c(c1)nc1n2C(c2c(Cl)cccc2Cl)SC1 (centres undefined)
inactive: [1] 16.6 µM | [2] 15.7 µM | [3] 12.2 µM | [4] 23 µM | [5] 15.8 µM | [6] 16.6 µM | [7] 21.4 µM | [9] 16.8 µM | [19] 21.5 µM | [11] 23.8 µM | [12] 15 µM | [13] 22 µM | [14] 16.9 µM | [15] 19.7 µM | [16] 17 µM | [17] 25.9 µM | [18] 16.8 µM

CC(C)N(C(=O)C1(O)c2ccccc2C=Cc2ccccc21)C(C)C
inactive: [1] 17.8 µM | [2] 17.3 µM | [3] 22.9 µM | [4] 18.8 µM | [5] 16.6 µM | [6] 19.3 µM | [7] 17.9 µM | [9] 30.1 µM | [19] 18.2 µM | [10] 19.3 µM | [11] 1.92 µM | [12] 15.5 µM | [13] 18 µM | [14] 16.3 µM | [15] 45.9 µM | [16] 15.7 µM
